The record followed here is ChEMBL document CHEMBL5543064, “Interleukin-1β converting enzyme (ICE): A comprehensive review on discovery and development of caspase-1 inhibitors” (Eur J Med Chem, 2023).

For orientation: IC50 means the point on the concentration scale where inhibition reaches its midpoint. Low values mean inhibition by little substance, high ones a need for much substance. For orientation: bioavailability means dose-corrected exposure relative to a reference, in per cent. Lower therefore signals poor availability. By mortality is commonly meant the share of the test organisms that died. In general, inhibition refers to the share of the control response that was lost under treatment. A higher inhibition goes with a strong effect.

One data set concerns the target T1, Caspase-1 (Homo sapiens, UniProt P29466).
T1 sequence (P29466 whole entry): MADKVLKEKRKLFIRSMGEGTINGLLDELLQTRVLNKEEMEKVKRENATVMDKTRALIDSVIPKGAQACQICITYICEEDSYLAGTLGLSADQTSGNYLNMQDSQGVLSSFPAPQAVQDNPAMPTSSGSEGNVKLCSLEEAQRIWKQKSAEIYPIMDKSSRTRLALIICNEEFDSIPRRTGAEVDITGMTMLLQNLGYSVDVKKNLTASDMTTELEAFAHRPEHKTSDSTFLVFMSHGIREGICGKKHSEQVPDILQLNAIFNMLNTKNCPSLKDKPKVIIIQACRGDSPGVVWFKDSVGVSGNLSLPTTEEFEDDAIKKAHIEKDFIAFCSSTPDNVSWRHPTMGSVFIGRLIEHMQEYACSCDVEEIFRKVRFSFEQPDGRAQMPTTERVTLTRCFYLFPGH
The experiment in a line: Inhibition of caspase-1 (unknown origin) by fluorescence based analysis.
Conditions: not given
As for `O=C1C[C@H](NC(=O)[C@@H]2CCCN3C(=O)CC[C@H](NC(=O)c4nccc5ccccc45)C(=O)N23)[C@H](O)O1`, inhibition was half-maximal at 1.3 nM (IC50). In other words, the single-digit nanomolar range.

The target in a further data set is T2, Caspase-8 (Homo sapiens, UniProt Q14790). The experiment in a line: Inhibition of caspase-8 (unknown origin) by fluorescence based analysis.
T2 sequence (Q14790 217-374 limits assumed): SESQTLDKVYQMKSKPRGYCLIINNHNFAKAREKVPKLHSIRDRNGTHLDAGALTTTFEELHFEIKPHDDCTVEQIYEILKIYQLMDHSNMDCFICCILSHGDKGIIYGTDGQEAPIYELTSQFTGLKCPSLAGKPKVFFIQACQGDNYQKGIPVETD
T2 sequence (Q14790 385-479 limits assumed): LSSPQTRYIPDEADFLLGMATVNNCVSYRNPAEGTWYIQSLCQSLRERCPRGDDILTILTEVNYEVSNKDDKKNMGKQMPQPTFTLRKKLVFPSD
Conditions: not given
`O=C1C[C@H](NC(=O)[C@@H]2CCCN3C(=O)CC[C@H](NC(=O)c4nccc5ccccc45)C(=O)N23)[C@H](O)O1` yielded an IC50 of 0.12 nM.

System in another data set: not listed separately
Kind of data set: Oral bioavailability in rat. It is filed as ADME, organism-based. The settings on record: in vivo.
For the compound `O=C1C[C@H](NC(=O)[C@@H]2CCCN3C(=O)CC[C@H](NC(=O)c4nccc5ccccc45)C(=O)N23)[C@H](O)O1`, the bioavailability stood at 4%.

System in another data set: not listed separately
The experiment in a line: Toxicity in Sprague-Dawley rat assessed as […] mortality at 12.5 micromol/kg. The settings on record: in vivo, 12.5 µmol/kg.
As to `CC(=O)C[C@@H](C(=O)CCl)N(C(=O)[C@@H](NC(=O)[C@H](Cc1ccc(O)cc1)NC(C)=O)C(C)C)[C@@H](C)C(N)=O`, the mortality was 33%.

In the next data set the target is T1, Caspase-1. The experiment in a line: Inhibition of Caspase-1 (unknown origin).
Conditions: not given
With `C[C@H](NC(=O)C(NC(=O)c1cc2ccccc2[nH]1)C(=O)O)C(=O)N[C@H](CN=[N+]=[N-])CC(=O)O` (some centres not stated), it took 75 nM to reach half-maximal inhibition (IC50).

In the case of `CCC(C)(C)c1ccc(Oc2ccccc2S(=O)(=O)N[C@H](C=O)CC(=O)O)cc1`, the IC50 turned out to be 2200 nM.

`CC(C)C(NC(=O)c1ccc2ccccc2c1)C(=O)N[C@@H](C)C(=O)N[C@H](CN=[N+]=[N-])CC(=O)O` (some centres not stated) had an IC50 of 4.6 nM. This IC50 lies about 480-fold lower than the previous one.

`CC(C)(NC(=O)CNC(=O)c1ccc2ccccc2c1)C(=O)N[C@H](CN=[N+]=[N-])CC(=O)O` returned an IC50 of 7.9 nM.

`CC(C)C(NC(=O)OCc1ccccc1)C(=O)N[C@@H](C)C(=O)NC(CC(=O)O)C(=O)CNS(=O)(=O)CCc1ccccc1` (some centres not stated) showed an IC50 of 700 nM.

`Cc1cc(Oc2ccccc2S(=O)(=O)N[C@H](C=O)CC(=O)O)ccc1C(C)C` came in with an IC50 of 1000 nM.

Turning to `C[C@H](NC(=O)C(NC(=O)c1ccc2ccccc2c1)C(=O)O)C(=O)N[C@H](CN=[N+]=[N-])CC(=O)O` (some centres not stated), the IC50 was determined as 40 nM.

Compound `C[C@H](NC(=O)[C@H](CCC(=O)O)NC(=O)OCc1ccccc1)C(=O)NC(CC(=O)O)C(=O)CNS(=O)(=O)CCc1ccccc1` (some centres not stated) displayed an IC50 of 20 nM. Against the preceding compound, the IC50 is about 2-fold lower.

Turning to `Cc1cccc(S(=O)(=O)N[C@H](C=O)CC(=O)O)c1-c1ccccc1`, the midpoint of inhibition, the IC50, lay at 34400 nM.

`CCC(C)(C)c1ccc(Oc2ccccc2S(=O)(=O)N[C@H](C=O)CC(=O)O)cc1C` showed an IC50 of 1000 nM. Compared with the last compound, the IC50 is about 34-fold lower.

Compound `O=C[C@H](CC(=O)O)NS(=O)(=O)c1ccccc1-c1cccc2ccccc12` returned an IC50 of 11400 nM.

Another data set deals with T1, Caspase-1. The experiment in a line: Binding affinity to caspase-1 (unknown origin) assessed as inhibition constant.
Conditions: not given
Take `CC(C)C(NC(=O)OCc1ccccc1)C(=O)N[C@@H](C)C(=O)NC(CC(=O)O)C(=O)CNS(=O)(=O)CCc1ccccc1` (some centres not stated): the Ki amounted to 4 nM.

Turning to `C[C@H](NC(=O)[C@H](CCC(=O)O)NC(=O)OCc1ccccc1)C(=O)NC(CC(=O)O)C(=O)CNS(=O)(=O)CCc1ccccc1` (some centres not stated), the Ki is 20 nM.

With `O=C(CN1C(=O)[C@H](NC(=O)c2ccccc2)CN(C(=O)CCc2ccccc2)c2ccccc21)N[C@H]1CC(=O)OC1O` (some centres not stated), the Ki came out at 850 nM.

Another data set has as its target T1, Caspase-1. The experiment in a line: Binding affinity to human caspase-1 assessed as apparent inhibition constant. The settings on record: read-out: Ki(app).
Take `O=C[C@H](CC(=O)O)NC(=O)CCCCCNC(=O)c1ccc(Nc2cnc3ccccc3n2)cc1`: the Ki turned out to be 150 nM.

Another data set deals with T2, Caspase-8. The experiment in a line: Binding affinity to Caspase-8 (unknown origin) using Ac-IETD-AFC as substrate assessed as inhibition constant.
Conditions: not given
As for `CC(C)[C@H](NC(=O)CCc1ccccc1)C(=O)N[C@@H](C)C(=O)N[C@@H](CC(=O)O)C(=O)CCc1ccccc1`, the Ki is 610 nM.

`CC(=O)N[C@@H](Cc1ccc(O)cc1)C(=O)N[C@H](C(=O)N[C@@H](C)C(=O)N[C@@H](CC(=O)O)C(=O)CCCCc1ccccc1)C(C)C`: the Ki came to 42 nM.

Turning to `CC(=O)N[C@@H](Cc1ccc(O)cc1)C(=O)N[C@H](C(=O)N[C@@H](C)C(=O)N[C@@H](CC(=O)O)C(=O)CCCCCc1ccccc1)C(C)C`, the Ki came to 18.5 nM.

`CC(C)[C@H](NC(=O)CCc1ccccc1)C(=O)N[C@@H](C)C(=O)N[C@@H](CC(=O)O)C(=O)CCCc1ccccc1`: the Ki was found to be 100 nM.

The target of a further data set is T1, Caspase-1. The experiment in a line: Binding affinity to N-terminal His-tagged Caspase-1 (unknown origin) assessed as inhibition constant.
Conditions: not given
Turning to `CC(=O)N[C@H](C(=O)N[C@@H](CC(=O)O)C(=O)COC(=O)Cc1c(Cl)cccc1Cl)C(C)C`, the Ki was determined as 80 nM.

Turning to `CC(=O)N[C@H](C(=O)N[C@@H](CC(=O)O)C(=O)COC(=O)Cc1c(Cl)ccc(Cl)c1Cl)C(C)C`, the Ki worked out at 113 nM.

The next data set has as its target T1, Caspase-1. The experiment in a line: Inhibition of N-terminal His-tagged Caspase-1 (unknown origin).
Conditions: not given
`O=C(O)CC(NC(=O)C(NC(=O)OCc1ccccc1)c1ccccc1)C(=O)COC(=O)c1ccccc1` (configuration not stated) gave an IC50 of 820 nM.

`COC(=O)CC(NC(=O)C(NC(=O)OCc1ccccc1)c1ccccc1)C(=O)COC(=O)c1ccccc1` (configuration not stated) registered an IC50 of 5560 nM.

A further data set addresses T1, Caspase-1. Kind of data set: Inhibition of caspase-1 (unknown origin) using Ac-Tyr-Val-Ala-Asp-AFC as fluorogenic substrate by fluorescence based analysis.
Conditions: not given
Take `CC(C)[C@H](NC(=O)c1ccc2ccccc2c1)C(=O)N1CCC[C@H]1C(=O)N[C@H](C=O)CC(=O)NS(C)(=O)=O`: 38 nM corresponded to half-maximal inhibition (IC50).

`CC(C)[C@H](NC(=O)c1ccc2ccccc2c1)C(=O)N(CCCn1ccnc1)CC(=O)N[C@@H](CC(=O)O)C(=O)COc1ccccc1`: 13 nM corresponded to half-maximal inhibition (IC50).

In turn, `CCCCN(CC(=O)N[C@@H](CC(=O)O)C(=O)COc1ccccc1)C(=O)[C@@H](NC(=O)c1ccc2ccccc2c1)C(C)C` came in with an IC50 of 22 nM.

In another data set the target is Interleukin-1 beta (Homo sapiens) (UniProt P01584). The experiment in a line: Inhibition of human Interleukin-1beta at 30 uM relative to control.
Sequence of Interleukin-1 beta (Homo sapiens) (P01584 117-269 limits assumed): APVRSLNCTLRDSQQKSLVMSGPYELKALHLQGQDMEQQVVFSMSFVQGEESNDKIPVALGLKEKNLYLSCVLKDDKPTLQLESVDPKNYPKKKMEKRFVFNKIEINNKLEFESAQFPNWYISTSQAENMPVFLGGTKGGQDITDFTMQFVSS
Conditions: not given
`N#Cc1ccc(-n2sc(-c3ccccc3Cl)cc2=O)cc1` returned an inhibition of 89%.

`O=c1cc(-c2ccccc2Cl)sn1-c1ccc(C(F)(F)F)cc1`: the inhibition was 83%.

As for `CCOC(=O)c1ccc(-n2sc(-c3ccccc3Cl)cc2=O)cc1`, the inhibition turned out to be 87%.

In the next data set the target is T1, Caspase-1. Kind of data set: Inhibition of Interleukin-1beta-converting enzyme (unknown origin).
Conditions: not given
Regarding `CC1=C(O)C(=O)C=C2C1=CC=C1[C@@]2(C)CC[C@@]2(C)[C@@H]3C[C@](C)(C(=O)O)CC[C@]3(C)CC[C@]12C` [CELASTROL], the IC50 stood at 40 nM. This counts as double-digit nanomolar.

In turn, `COC(=O)c1ccc(NC(=O)CCCCC(=O)Nc2ccc3c(c2)C(=O)C(=O)NC3=O)cc1` displayed an IC50 of 19 nM.

On to `COC(=O)[C@]1(C)CC[C@]2(C)CC[C@]3(C)C4=CCc5c(cc(OC(C)=O)c(OC(C)=O)c5C)[C@]4(C)CC[C@@]3(C)[C@@H]2C1` [PRISTIMEROL DIACETATE], for which the IC50 was 79 nM.

On to `COC(=O)[C@]1(C)CC[C@]2(C)CC[C@]3(C)C4=CC=C5C(=CC(=O)C(O)=C5C)[C@]4(C)CC[C@@]3(C)[C@@H]2C1` [PRISTIMERIN], for which the IC50 is 56 nM.

Compound `CC1=C(O)C(=O)C=C2C1=CC=C1[C@@]2(C)CC[C@@]2(C)[C@@H]3C[C@@H](C)C(=O)C[C@]3(C)CC[C@]12C` [TINGENONE] returned a concentration for half-maximal inhibition (IC50) of 58 nM.

In another data set the target is Caspase-1 (Homo sapiens) (UniProt P29466). Kind of data set: Binding affinity to caspase-1 (unknown origin) assessed as inhibition constant.
Conditions: not given
Turning to `O=CC(CC(=O)O)NC(=O)Cn1c(Cc2ccccc2)ccc(NC(=O)CCc2ccccc2)c1=O` (single isomer, unassigned), the Ki is 150 nM.

As for `O=C[C@H](CC(=O)O)NC(=O)Cn1c(-c2ccccc2)ccc(NC(=O)CCc2ccccc2)c1=O`, the Ki is 900 nM.

For `O=C[C@H](CC(=O)O)NC(=O)[C@@H]1CCCN2C(=O)CC[C@H](NC(=O)c3ccc(OCC(=O)O)cc3)C(=O)N12`, the Ki was 1 nM.

With `CC(C(=O)NC(C=O)CC(=O)O)n1c(Cc2ccccc2)ccc(NC(=O)CCc2ccccc2)c1=O` (single isomer, unassigned), the Ki was found to be 970 nM.
